Measured values as given in ChEMBL document CHEMBL5108002, “Design, synthesis, and biological evaluation of novel 7-substituted 10,11-methylenedioxy-camptothecin derivatives against drug-resistant small-cell lung cancer in vitro and in vivo” (Eur J Med Chem, 2022).
Calls of active or inactive are those of the source. The rule behind the calls is not given here.

Tests used:
[1] = system: NCI-H446; experiment: Antitumor activity against human NCI-H446 cells xenografted in BALB/c nude mouse assessed as tumor growth inhibition at 3 mg/kg, IG administered once a week for 28 days by electronic caliper method relative to control; type: functional; settings: NCI-H446, po, 672 h, time 28 day, read-out: TGI
[2] = system: NCI-H446; experiment: Antiproliferative activity against Irinotecan-resistant human NCI-H446 cells assessed as inhibition of cell growth incubated for 72 hrs by SRB assay; type: functional, cell-based; settings: NCI-H446, 72 h
[3] = Resistance index, ratio of IC50 for antiproliferative activity against Irinotecan-resistant human NCI-H446 cells to IC50 for antiproliferative activity against human NCI-H446 cells; type: functional
[4] = system: NCI-H446; experiment: Antiproliferative activity against etoposide/cisplatin combination-resistant human NCI-H446 cells assessed as inhibition of cell growth incubated for 72 hrs by SRB assay; type: functional, cell-based; settings: NCI-H446, 72 h
[5] = Resistance index, ratio of IC50 for antiproliferative activity against etoposide/cisplatin combination-resistant human NCI-H446 cells to IC50 for antiproliferative activity against human NCI-H446 cells; type: functional
[6] = system: NCI-H446; experiment: Antitumor activity against Irinotecan-resistant human NCI-H446 cells xenografted in BALB/c nude mouse assessed as tumor weight at 100 mg/kg, IG administered once a week and measured 3 times a week for 35 days; type: functional; settings: time 35 day
[7] = system: 2008; experiment: Antiproliferative activity against human 2008 cells assessed as inhibition of cell growth incubated for 72 hrs by SRB assay; type: functional, cell-based; settings: Homo sapiens, 2008, 72 h
[8] = system: SW-620; experiment: Antiproliferative activity against human SW-620 cells assessed as inhibition of cell growth incubated for 72 hrs by SRB assay; type: functional, cell-based; settings: SW-620, 72 h
[9] = system: HepG2; experiment: Antiproliferative activity against human HepG2 cells assessed as inhibition of cell growth incubated for 72 hrs by SRB assay; type: functional, cell-based; settings: HepG2, 72 h
[10] = system: Bel-7402; experiment: Antiproliferative activity against human Bel-7402 cells assessed as inhibition of cell growth incubated for 72 hrs by SRB assay; type: functional, cell-based; settings: Bel-7402, 72 h
[11] = system: H69AR; experiment: Antiproliferative activity against human NCI-H69AR cells assessed as inhibition of cell growth incubated for 72 hrs by SRB assay; type: functional, cell-based
[12] = system: SH-SY5Y; experiment: Antiproliferative activity against human SH-SY5Y cells assessed as inhibition of cell growth incubated for 72 hrs by SRB assay; type: functional, cell-based
[13] = system: MCF7; experiment: Antiproliferative activity against human MCF7 cells assessed as inhibition of cell growth incubated for 72 hrs by SRB assay; type: functional, cell-based; settings: MCF7, 72 h
[14] = system: NCI-H69; experiment: Antiproliferative activity against human NCI-H69 cells assessed as inhibition of cell growth incubated for 72 hrs by SRB assay; type: functional, cell-based; settings: NCI-H69, 72 h
[15] = system: U-87 MG; experiment: Antiproliferative activity against human U87 cells assessed as inhibition of cell growth incubated for 72 hrs by SRB assay; type: functional, cell-based, U-87MG ATCC
[16] = system: NCI-H446; experiment: Induction of apoptosis in human NCI-H446 cells assessed as early apoptotic cells at 0.1 nM incubated for 24 hrs by AnnexinV-FITC/PI staining based flow cytometry analysis (reference value: 2.43 %); type: functional
[17] = system: NCI-H446; experiment: Induction of apoptosis in human NCI-H446 cells assessed as late apoptotic cells at 0.1 nM incubated for 24 hrs by AnnexinV-FITC/PI staining based flow cytometry analysis (reference value: 1.55 %); type: functional
[18] = system: NCI-H446; experiment: Induction of apoptosis in human NCI-H446 cells assessed as dead cells at 0.1 nM incubated for 24 hrs by AnnexinV-FITC/PI staining based flow cytometry analysis (reference value: 0.33 %); type: functional
[19] = system: NCI-H446; experiment: Induction of apoptosis in human NCI-H446 cells assessed as early apoptotic cells at 1 nM incubated for 24 hrs by AnnexinV-FITC/PI staining based flow cytometry analysis (reference value: 2.43 %); type: functional
[20] = system: NCI-H446; experiment: Induction of apoptosis in human NCI-H446 cells assessed as late apoptotic cells at 1 nM incubated for 24 hrs by AnnexinV-FITC/PI staining based flow cytometry analysis (reference value: 1.55 %); type: functional
[21] = system: NCI-H446; experiment: Induction of apoptosis in human NCI-H446 cells assessed as dead cells at 1 nM incubated for 24 hrs by AnnexinV-FITC/PI staining based flow cytometry analysis (reference value: 0.33 %); type: functional
[22] = system: NCI-H446; experiment: Induction of apoptosis in human NCI-H446 cells assessed as early apoptotic cells at 10 nM incubated for 24 hrs by AnnexinV-FITC/PI staining based flow cytometry analysis (reference value: 2.43 %); type: functional
[23] = system: NCI-H446; experiment: Induction of apoptosis in human NCI-H446 cells assessed as late apoptotic cells at 10 nM incubated for 24 hrs by AnnexinV-FITC/PI staining based flow cytometry analysis (reference value: 1.55 %); type: functional
[24] = system: NCI-H446; experiment: Induction of apoptosis in human NCI-H446 cells assessed as dead cells at 10 nM incubated for 24 hrs by AnnexinV-FITC/PI staining based flow cytometry analysis (reference value: 0.33 %); type: functional
[25] = system: H69AR; experiment: Induction of apoptosis in human NCI-H69AR cells assessed as early apoptotic cells at 1 nM incubated for 24 hrs by AnnexinV-FITC/PI staining based flow cytometry analysis (reference value: 0.35 %); type: functional
[26] = system: H69AR; experiment: Induction of apoptosis in human NCI-H69AR cells assessed as late apoptotic cells at 1 nM incubated for 24 hrs by AnnexinV-FITC/PI staining based flow cytometry analysis (reference value: 2.99 %); type: functional
[27] = system: H69AR; experiment: Induction of apoptosis in human NCI-H69AR cells assessed as dead cells at 1 nM incubated for 24 hrs by AnnexinV-FITC/PI staining based flow cytometry analysis (reference value: 1.92 %); type: functional
[28] = system: H69AR; experiment: Induction of apoptosis in human NCI-H69AR cells assessed as early apoptotic cells at 10 nM incubated for 24 hrs by AnnexinV-FITC/PI staining based flow cytometry analysis (reference value: 0.35 %); type: functional
[29] = system: H69AR; experiment: Induction of apoptosis in human NCI-H69AR cells assessed as late apoptotic cells at 10 nM incubated for 24 hrs by AnnexinV-FITC/PI staining based flow cytometry analysis (reference value: 2.99 %); type: functional
[30] = system: H69AR; experiment: Induction of apoptosis in human NCI-H69AR cells assessed as dead cells at 10 nM incubated for 24 hrs by AnnexinV-FITC/PI staining based flow cytometry analysis (reference value: 1.92 %); type: functional
[31] = system: H69AR; experiment: Induction of apoptosis in human NCI-H69AR cells assessed as early apoptotic cells at 100 nM incubated for 24 hrs by AnnexinV-FITC/PI staining based flow cytometry analysis (reference value: 0.35 %); type: functional
[32] = system: H69AR; experiment: Induction of apoptosis in human NCI-H69AR cells assessed as late apoptotic cells at 100 nM incubated for 24 hrs by AnnexinV-FITC/PI staining based flow cytometry analysis (reference value: 2.99 %); type: functional
[33] = system: H69AR; experiment: Induction of apoptosis in human NCI-H69AR cells assessed as dead cells at 100 nM incubated for 24 hrs by AnnexinV-FITC/PI staining based flow cytometry analysis (reference value: 1.92 %); type: functional
[34] = system: NCI-H446; experiment: Induction of apoptosis in human NCI-H446 cells assessed as increase in cleaved-PARP protein expression at 0.1 to 100 nM measured after 24 hrs by Western blot analysis; type: functional, cell-based; settings: dose 0.1-100 nM
[35] = system: NCI-H446; experiment: Induction of apoptosis in human NCI-H446 cells assessed as increase in cleaved-caspase 9 protein expression at 0.1 to 100 nM measured after 24 hrs by Western blot analysis; type: functional, cell-based; settings: dose 0.1-100 nM
[36] = system: NCI-H446; experiment: Induction of apoptosis in human NCI-H446 cells assessed as increase in cleaved-caspase 3 protein expression at 0.1 to 100 nM measured after 24 hrs by Western blot analysis; type: functional, cell-based; settings: dose 0.1-100 nM

## CCc1c2c(nc3ccc(OC(=O)N4CCC(N5CCCCC5)CC4)cc13)-c1cc3c(c(=O)n1C2)COC(=O)[C@]3(O)CC [IRINOTECAN]
[1]
  inhibition in vivo at 3 mg/kg: 26.8%
[2]
  IC50: 0.15 nM
[3]
  Ratio IC50: 15
[4]
  IC50: 0.13 nM
[5]
  Ratio IC50: 13
[6]
  Activity: 2.28 g

## CC[C@@]1(O)C(=O)OCc2c1cc1n(c2=O)Cc2c-1nc1cc3c(cc1c2-c1cc(C(F)(F)F)cc(C(F)(F)F)c1)OCO3
[7]
  IC50: 49.7 nM
[8]
  IC50: 1.44 nM

## CC[C@@]1(O)C(=O)OCc2c1cc1n(c2=O)Cc2c-1nc1cc3c(cc1c2-c1ccc(CO)cc1)OCO3
[7]
  IC50: 7.67 nM
[8]
  IC50: 0.28 nM

## CC[C@@]1(O)C(=O)OCc2c1cc1n(c2=O)Cc2c-1nc1cc3c(cc1c2-c1cccs1)OCO3
[7]
  IC50: 4.03 nM
[8]
  IC50: 0.29 nM

## COc1cc([C@@H]2c3cc4c(cc3[C@@H](O[C@@H]3O[C@@H]5CO[C@@H](C)O[C@H]5[C@H](O)[C@H]3O)[C@H]3COC(=O)[C@H]23)OCO4)cc(OC)c1O [ETOPOSIDE]
[2]
  IC50: 192 nM
[3]
  Ratio IC50: 11.48
[5]
  Ratio IC50: 19.28

## CC[C@@]1(O)C(=O)OCc2c1cc1n(c2=O)Cc2c-1nc1cc3c(cc1c2-c1ccncc1)OCO3
[7]
  IC50: 93.5 nM
[8]
  IC50: 2.67 nM

## CC[C@@]1(O)C(=O)OCc2c1cc1n(c2=O)Cc2c-1nc1cc3c(cc1c2-c1cccnc1)OCO3
[7]
  IC50: 11.6 nM
[8]
  IC50: 0.17 nM

## COc1cccc2c1C(=O)c1c(O)c3c(c(O)c1C2=O)C[C@@](O)(C(=O)CO)C[C@@H]3O[C@H]1C[C@H](N)[C@H](O)[C@H](C)O1 [DOXORUBICIN]
[2]
  IC50: 5.71 nM
[3]
  Ratio IC50: 14.64
[5]
  Ratio IC50: 46.56

## CC[C@@]1(O)C(=O)OCc2c1cc1n(c2=O)Cc2c-1nc1cc3c(cc1c2-c1ccsc1)OCO3
[7]
  IC50: 39.2 nM
[8]
  IC50: 0.36 nM

## CC[C@@]1(O)C(=O)OCc2c1cc1n(c2=O)Cc2c-1nc1cc3c(cc1c2-c1cnn(C)c1)OCO3
[7]
  IC50: 22.4 nM
[8]
  IC50: 0.84 nM

## CC[C@@]1(O)C(=O)OCc2c1cc1n(c2=O)Cc2c-1nc1cc3c(cc1c2-c1ccco1)OCO3
[7]
  IC50: 0.16 nM
[8]
  IC50: 102 nM

## CC[C@@]1(O)C(=O)OCc2c1cc1n(c2=O)Cc2cc3cc4c(cc3nc2-1)OCO4
[7]
  IC50: 37.3 nM
[8]
  IC50: 0.93 nM
[9]
  IC50: 10.6 nM
[10]
  IC50: 21.8 nM
[11]
  IC50: 6.29 nM
[12]
  IC50: 24.2 nM
[13]
  IC50: 63.3 nM
[14]
  IC50: 15.8 nM
[15]
  IC50: 109 nM
[16]
  Activity: 3.93%
[17]
  Activity: 0.83%
[18]
  Activity: 0.34%
[19]
  Activity: 9.64%
[20]
  Activity: 1.83%
[21]
  Activity: 0.97%
[22]
  Activity: 14.27%
[23]
  Activity: 2.82%
[24]
  Activity: 0.37%
[25]
  Activity: 0.58%
[26]
  Activity: 5.73%
[27]
  Activity: 1.72%
[28]
  Activity: 0.43%
[29]
  Activity: 7.33%
[30]
  Activity: 2.87%
[31]
  Activity: 1.3%
[32]
  Activity: 32.78%
[33]
  Activity: 1.56%
[34]
  Activity: Active
[35]
  Activity: Active
[36]
  Activity: Active
[1]
  inhibition in vivo at 3 mg/kg: 27.7%
[2]
  IC50: 18.5 nM
[3]
  Ratio IC50: 2.09
[4]
  IC50: 6.61 nM
[5]
  Ratio IC50: 0.78

## CC[C@@]1(O)C(=O)OCc2c1cc1n(c2=O)Cc2cc3c(CN(C)C)c(O)ccc3nc2-1 [TOPOTECAN]
[7]
  IC50: > 500 nM
[8]
  IC50: > 500 nM
